Measured values as given in patent US20170138946A1, “BIOMARKERS FOR RESPONSE TO EZH2 INHIBITORS” (Memorial Sloan-Kettering Cancer Center, priority 2014, published 2017).

Columns and labels:
[1] = tested on: BAP1-mutant mesothelioma cells (H2452 xenografts); experiment: H2452 xenografts in NOD-SCID mice treated with GSK126; type: in vivo
Method: FIG. 21A-C. BAP1-mutant mesothelioma cell lines and xenograft models are sensitive to EZH2 inhibition. (a) Tumor volume of H2452 xenografts treated daily with GSK126 at 150 mg/kg or vehicle (n=10 mice per group). 5 mice from each group were euthanized following 16 days of treatment to assess H3K27me3 depletion. The remaining mice were treated for the remainder of the trial. (b) Histone ELISA and Western blot analysis of H3K27me3 levels in tumors from in vivo treated mice after 16 days treatment. (c) H&E staining, Ki67 staining and TUNEL staining of tumors extracted from vehicle treated and GSK126 treated mice, 10× magnification.
Next, whether EZH2 inhibition might inhibit the survival of BAP1-mutant mesothelioma cell lines was assessed. EZH2 silencing induced apoptosis in BAP1-mutant cell lines, whereas wild-type cell lines continued to proliferate (FIGS. 16B,C). EZH2 silencing abrogated in vivo tumor formation of BAP1-mutant but not wild-type cell lines (FIG. 16D). Overexpression of EZH2 in BAP1 wild-type cell lines increased proliferation (FIG. 20A) and sensitivity to EZH2 inhibition (FIG. 20B). […] Next, the impact of EZH2 inhibition in vivo was assessed. […] EZH2 inhibition abrogated pulmonary metastasis in a BAP1-mutant mesothelioma cell line with metastatic potential (FIG. 16G) consistent with a role for BAP1/EZH2 in metastasis (Harbour et al., 2010). EZH2 inhibition reduced invasion and increased E-Cadherin expression in vitro (FIGS. 20C-D). Next, the impact of EZH2 inhibition using the […] GSK126 was assessed. BAP1-mutant mesothelioma cells were injected into the flank of NOD-SCID mice, and then initiated treatment with either vehicle or 150 mg/kg GSK126 after tumor formation.

[2] = tested on: E-Cadherin expression in H226; experiment: E-Cadherin expression after GSK126 treatment; type: cell-based, human; settings: cell line H226
Text: (§1) FIG. 20A-D. BAP1 mutant cell lines are most sensitive to EZH2 inhibition. (a) Meso10 cell line overexpressing EZH2 increasingly proliferated after injection into the flank of NOD-SCID mice. (b) EZH2 was overexpressed in MSTO-211H and Meso10 cell lines. […] (c) BAP1-mutant cells became less invasive when treated with the EZH2 inhibitor GSK126. (d) E-Cadherin expression increased in the cell line H226 following treatment with GSK126.

BAP1-mutant cells = experiment: Matrigel invasion assay with GSK126; type: cell-based, human; settings: GSK126 0-2 μM for 7 days
Method: Mesothelioma cells (MSTO-211H, H2373, H226 and H2452) were seeded in T75 flasks (100,000 cells). 12 hours later the plated cells were treated with GSK126 (0-2 μM) (Chemitek) and then left to proliferate for 7 days. 250,000 treated cells were then placed on the top of a Matrigel invasion chamber (BD Biosciences, cat no. 354480) in serum free media while the lower chamber contained media with serum. 22 hours later the cells on the bottom of the membrane were stained with crystal violet and quantitated with ImageJ.

Bap1 KO mice = Bap1 KO mice treated with EPZ011989 (genetic Bap1 KO trial); type: in vivo; settings: 500 mg/kg BID orally for 16 days
Text: FIG. 11A-K. Proliferation induced by Bap1 deletion is rescued by loss of Ezh2. (a) Western blot of H3K27me3 levels in histones purified from bone marrow of Bap1 KO, Ezh2 KO, Bap1/Ezh2 KO and control mice. (b) Representative images of spleens and (c) enumeration of spleen weight from the indicated genotypes of mice, 3 weeks post pIpC. (d) Peripheral white blood cell counts and (e) hematocrit percentages as quantified by a Hemavet. (f) Flow cytometric enumeration of myeloid progenitors (Lin^− c-Kit^+Sca1^−) and (g) Mature myeloid cells (Mac1^+Gr1^+) (h) Cell cycle analyses in myeloid progenitors using Ki67 and DAPI stain (n=3/group) (i) Western blot for H3K27me3 levels in mice (n=5/group) treated with EPZ011989 twice a day at 500 mg/kg for 16 days. (j) Spleen weights and (k) white blood cell counts after treatment. Unless otherwise indicated, […], n=5/Ezh2 KO, n=8/Bap1 KO, and n=11/Bap1/Ezh2 KO, Statistics were calculated with Student t-test; *p<0.05, **p<0.005; ±SEM values reported. Groups of 10 week old NOD-SCID mice were injected subcutaneously in the flank with 6-10×10^6 mesothelioma cell lines (MSTO-211H, Meso10, H226 and H2452) in a 1:1 mixture of matrigel and media. When tumors reached a size of approximately 60-80 mm^3, treatment with either vehicle (0.5% NaCMC+0.1% Tween-80 in water) or EPZ011989 was initiated. Either EPZ011989 or vehicle were given orally BID at a concentration of 500 mg/kg for the duration of the experiment. Tumor volumes were assessed in three dimensions using a caliper. Tumors or lung tissue were extracted following treatment and utilized for Western blotting to assess target inhibition. […] Researchers were not blinded in these experiments.

wild-type tumors = experiment: Mesothelioma xenografts in NOD-SCID mice treated with EPZ011989, BAP1 wild-type tumors; type: in vivo; settings: 500 mg/kg BID
Text: FIG. 16A-H. BAP1-mutant mesothelioma cell lines and xenograft models are sensitive to EZH2 inhibition. (a) Expression of EZH2 transcripts in TCGA mesothelioma patients compared to matched normals. (b) Annexin V assays in BAP1 wild-type and mutant cell lines expressing either empty vector or hairpins targeting EZH2. (c) Quantitation of Annexin V experiments in mesothelioma cell lines (d) Tumor size of Meso10 and H226 cell lines expressing EZH2 hairpins implanted into NOD-SCID mice, n=6/group. (e) 2D Cell Titer Glo viability assays after 2 week treatment with EPZ011989 at 1.25 μM. (f) 3D Cell Titer Glo viability assays after 3 weeks EPZ011989 treatment at 1.25 μM. (g) Tumor size formation from BAP1 mutant (MSTO and Meso10) or (h) wild-type cells (H226 and H2452) implanted into NOD-SCID mice and treated with either vehicle or 500 mg/kg BID EPZ011989. Tumors were measured 3× weekly, n=6/group. Target inhibition was assessed by histone western blots in extracted tumors (shown in respective figures). […] Statistics were calculated with Student t-test; *p<0.05, **p<0.005; ±SEM values reported.
(§2) Groups of 10 week old NOD-SCID mice were injected subcutaneously in the flank with 6-10×10^6 mesothelioma cell lines (MSTO-211H, Meso10, H226 and H2452) in a 1:1 mixture of matrigel and media. […] Tumor volumes were assessed in three dimensions using a caliper. […]

[3] = tested on: MSTO-211H and Meso10 cell lines overexpressing EZH2; experiment: Sensitivity to EPZ011989 of cell lines overexpressing EZH2; type: cell-based, human; settings: MSTO-211H and Meso10 overexpressing EZH2
Text: as §1

BAP1-mutant cell lines [4] = experiment: 3D Cell Titer Glo viability assay with EPZ011989; type: cell-based, human; settings: 3 weeks treatment at 1.25 μM, compared with wild-type cell lines
Text: (§3) FIG. 16A-H. BAP1-mutant mesothelioma cell lines and xenograft models are sensitive to EZH2 inhibition. (a) Expression of EZH2 transcripts in TCGA mesothelioma patients compared to matched normals. (b) Annexin V assays in BAP1 wild-type and mutant cell lines expressing either empty vector or hairpins targeting EZH2. (c) Quantitation of Annexin V experiments in mesothelioma cell lines (d) Tumor size of Meso10 and H226 cell lines expressing EZH2 hairpins implanted into NOD-SCID mice, n=6/group. (e) 2D Cell Titer Glo viability assays after 2 week treatment with EPZ011989 at 1.25 μM. (f) 3D Cell Titer Glo viability assays after 3 weeks EPZ011989 treatment at 1.25 μM. (g) Tumor size formation from BAP1 mutant (MSTO and Meso10) or (h) wild-type cells (H226 and H2452) implanted into NOD-SCID mice and treated with either vehicle or 500 mg/kg BID EPZ011989. Tumors were measured 3× weekly, n=6/group. Target inhibition was assessed by histone western blots in extracted tumors (shown in respective figures). Lung pathology of H2452 cells with vehicle and EPZ1011989 treatment. Arrow indicates bulk metastasized tumor. Statistics were calculated with Student t-test; *p<0.05, **p<0.005; ±SEM values reported.

BAP1-mutant cell lines [5] = experiment: 2D Cell Titer Glo viability assay with EPZ011989; type: cell-based, human; settings: 2 week treatment at 1.25 μM, compared with wild-type cell lines
Text: as §3

BAP1-mutant tumor = experiment: Mesothelioma xenografts in NOD-SCID mice treated with EPZ011989, BAP1-mutant tumors; type: in vivo; settings: 500 mg/kg BID
Text: as §3, with “(g) Tumor size formation from BAP1 mutant (MSTO and Meso10) or (h) wild-type cells (H226 and H2452) implanted into NOD-SCID mice and treated with either vehicle or 500 mg/kg BID EPZ011989.” left out
as §2

[6] = tumors extracted from treated mice, 150 mg/kg

SMILES	tumor size ([1]; 150 mg/kg daily, compared to vehicle treated mice)	H3K27me3 in tumors in vivo ([1]; 150 mg/kg, after 16 days treatment, histone ELISA and Western blot)	Ki67 staining [1, 6]	TUNEL staining [1, 6]	E-Cadherin expression [2]	invasion (BAP1-mutant cells)	splenomegaly (spleen weights) (Bap1 KO mice)	white blood cell counts (Bap1 KO mice)	H3K27me3 (Bap1 KO mice; Western blot)	response of wild-type tumors (tumor size) (wild-type tumors)	sensitivity with EZH2 overexpression [3]	sensitivity of BAP1-mutant cell lines in 3D culture (BAP1-mutant cell lines [4])	sensitivity of BAP1-mutant cell lines in 2D culture (BAP1-mutant cell lines [5])	BAP1-mutant tumor size (BAP1-mutant tumor; compared to vehicle treated mice)	pulmonary metastasis (BAP1-mutant tumor; BAP1-mutant mesothelioma cell line with metastatic potential (H2452))
CC[C@H](C)n1cc(C)c2c(C(=O)NCc3c(C)cc(C)[nH]c3=O)cc(-c3ccc(N4CCNCC4)nc3)cc21 [GSK126]	significantly reduced	significantly attenuated	reduced	increased	increased	less invasive									
CCN(c1cc(C#CCN2CCOCC2)cc(C(=O)NCc2c(C)cc(C)[nH]c2=O)c1C)[C@H]1CC[C@H](N(C)CCOC)CC1 [EPZ011989]							decreased	decreased	decreased	less/not responsive	increasingly sensitive	more sensitive	more sensitive	significantly reduced	abrogated
